Results from patent publication US8735414B2 (priority 2009, dated 2014).

Experiments:
[1] = test system: bicistronic HCV replicon (replicon RNA, GenBank Accession No. AJ242654); assay: HCV Replicon Assay; type: cell-based; settings: Hepatitis C virus, 72 h, read-out: Replicon IC50

| SMILES | melting point | IC50 [1] |
| --- | --- | --- |
| CC(C)(NS(=O)(=O)c1ccc(-c2c(C#N)c3ccc(OC(F)F)cc3n2-c2ccccc2)nc1)C(F)(F)F [compound 612, 6-[3-cyano-6-(difluoromethoxy)-1-phenyl-1H-indol-2-yl]-N-(1,1,1-trifluoro-2-methylpropan-2-yl)pyridine-3-sulfonamide] | 218 to 220 °C | < 500 nM |
| CCc1cc2c(cc1F)c(C#N)c(-c1ccc(S(=O)(=O)NC(C)(C)C)cn1)n2-c1ncccc1F [compound 900, N-tert-butyl-6-[3-cyano-6-ethyl-5-fluoro-1-(3-fluoropyridin-2-yl)-1H-indol-2-yl]pyridine-3-sulfonamide] | 200 to 203 °C | 500 to 2000 nM |
| Cc1cc2c(cc1F)c(C(N)=O)c(-c1ccc(S(=O)(=O)N[C@H](C)C(F)(F)F)cn1)n2C1CCOCC1 [compound 767, 5-fluoro-6-methyl-1-(tetrahydro-2H-pyran-4-yl)-2-(5-{[(2R)-1,1,1-trifluoropropan-2-yl]sulfamoyl}pyridin-2-yl)-1H-indole-3-carboxamide] | 258 to 262 °C | < 500 nM |
| Cc1cc2c(cc1F)c(C#N)c(-c1ccc(S(=O)(=O)NC(CF)CF)cn1)n2C1CCCC1 [compound 407, 6-(3-cyano-1-cyclopentyl-5-fluoro-6-methyl-1H-indol-2-yl)-N-(1,3-difluoropropan-2-yl)pyridine-3-sulfonamide] | 211 to 213 °C | < 500 nM |
| N#Cc1c(-c2ncc(S(=O)(=O)NC(CF)CF)cn2)n(CC2CC2)c2cc(F)ccc12 [compound 164, 2-[3-cyano-1-(cyclopropylmethyl)-6-fluoro-1H-indol-2-yl]-N-(1,3-difluoropropan-2-yl)pyrimidine-5-sulfonamide] | 176 to 178 °C | 500 to 2000 nM |
| Cc1cc2c(cc1F)c(C(N)=O)c(-c1ccc(S(=O)(=O)NC(C)(C)C)cn1)n2C1CCCCC1 [compound 1115, 2-[5-(tert-butylsulfamoyl)pyridin-2-yl]-1-cyclohexyl-5-fluoro-6-methyl-1H-indole-3-carboxamide] | 274.5 to 275.6 °C | < 500 nM |
| Cc1ccc2c(c1)c(C#N)c(-c1ncc(S(=O)(=O)NC(C)C)cn1)n2CC1CC1 [compound 388, 2-[3-cyano-1-(cyclopropylmethyl)-5-methyl-1H-indol-2-yl]-N-(propan-2-yl)pyrimidine-5-sulfonamide] | 219 to 222 °C | 500 to 2000 nM |
| CCc1ccc2c(C#N)c(-c3ccc(S(=O)(=O)N[C@H](C)C(F)(F)F)cn3)n(C3CCCC3)c2c1 [compound 311, 6-(3-cyano-1-cyclopentyl-6-ethyl-1H-indol-2-yl)-N-[(2R)-1,1,1-trifluoropropan-2-yl]pyridine-3-sulfonamide] | 185 to 186 °C | < 500 nM |
| Cc1ccc2c(c1)c(C#N)c(-c1ccc(S(=O)(=O)N[C@@H](C)C3CC3)cn1)n2CC1CC1 [compound 525, 6-[3-cyano-1-(cyclopropylmethyl)-5-methyl-1H-indol-2-yl]-N-[(1S)-1-cyclopropylethyl]pyridine-3-sulfonamide] | 181 to 185 °C | 500 to 2000 nM |
| Cc1cc2c(cc1F)c(C(N)=O)c(-c1ccc(S(=O)(=O)N[C@@H](C)C(F)(F)F)cn1)n2-c1cccnc1 [compound 913, 5-fluoro-6-methyl-1-(pyridin-3-yl)-2-(5-{[(2S)-1,1,1-trifluoropropan-2-yl]sulfamoyl}pyridin-2-yl)-1H-indole-3-carboxamide] | 223 to 227 °C | < 500 nM |
| N#Cc1c(-c2ccc(S(N)(=O)=O)cn2)n(CC2CC2)c2cc(OC(F)F)c(F)cc12 [compound 812, 6-[3-cyano-1-(cyclopropylmethyl)-6-(difluoromethoxy)-5-fluoro-1H-indol-2-yl]pyridine-3-sulfonamide] | 173 to 178 °C | 2000 to 5000 nM |
| C[C@H](NS(=O)(=O)c1cnc(-c2c(C#N)c3ccc(OC(F)F)cc3n2CC2CC2)nc1)C(F)(F)F [compound 398, 2-[3-cyano-1-(cyclopropylmethyl)-6-(difluoromethoxy)-1H-indol-2-yl]-N-[(2S)-1,1,1-trifluoropropan-2-yl]pyrimidine-5-sulfonamide] | 211 to 212 °C | < 500 nM |
| COc1ccc2c(C#N)c(-c3ccc(S(=O)(=O)N[C@@H](C)C(F)(F)F)cn3)n(C3CCCC3)c2c1 [compound 430, 6-(3-cyano-1-cyclopentyl-6-methoxy-1H-indol-2-yl)-N-[(2S)-1,1,1-trifluoropropan-2-yl]pyridine-3-sulfonamide] | 209 to 216 °C | < 500 nM |
| Cc1cc2c(cc1F)c(C#N)c(-c1ccc(S(=O)(=O)N[C@H](C)C(F)(F)F)cn1)n2C1CCC1 [compound 609, 6-(3-cyano-1-cyclobutyl-5-fluoro-6-methyl-1H-indol-2-yl)-N-[(2R)-1,1,1-trifluoropropan-2-yl]pyridine-3-sulfonamide] | 211 to 214 °C | < 500 nM |
| Cc1ccc2c(C#N)c(-c3ncc(S(=O)(=O)N[C@@H](C)C(F)(F)F)cn3)n(-c3ccccn3)c2c1 [compound 475, 2-[3-cyano-6-methyl-1-(pyridin-2-yl)-1H-indol-2-yl]-N-[(2S)-1,1,1-trifluoropropan-2-yl]pyrimidine-5-sulfonamide] | 210 to 212 °C | < 500 nM |
| Cc1ccc2c(C#N)c(-c3ncc(S(=O)(=O)NC(C)C)cn3)n(C3CCCC3)c2c1 [compound 74, 2-(3-cyano-1-cyclopentyl-6-methyl-1H-indol-2-yl)-N-(propan-2-yl)pyrimidine-5-sulfonamide] | 213 to 214 °C | < 500 nM |
| CC(C)n1c(-c2ccc(S(=O)(=O)N[C@@H](C)C(F)(F)F)cn2)c(C#N)c2cc(F)c(OC(F)F)cc21 [compound 936, 6-[3-cyano-6-(difluoromethoxy)-5-fluoro-1-(propan-2-yl)-1H-indol-2-yl]-N-[(2S)-1,1,1-trifluoropropan-2-yl]pyridine-3-sulfonamide] | 184 to 188 °C | < 500 nM |
| C[C@@H](NS(=O)(=O)c1ccc(-c2c(C#N)c3cc(F)ccc3n2C2CCC2)nc1)C(F)(F)F [compound 219, 6-(3-cyano-1-cyclobutyl-5-fluoro-1H-indol-2-yl)-N-[(2R)-1,1,1-trifluoropropan-2-yl]pyridine-3-sulfonamide] | 109 to 110 °C | < 500 nM |
| COc1cc2c(C(N)=O)c(-c3ccc(S(=O)(=O)N[C@H](C)C(F)(F)F)cn3)n(C3CCCC3)c2cc1C [compound 834, 1-cyclopentyl-5-methoxy-6-methyl-2-(5-{[(2R)-1,1,1-trifluoropropan-2-yl]sulfamoyl}pyridin-2-yl)-1H-indole-3-carboxamide] | 273 to 275 °C | 2000 to 5000 nM |
| Cc1ccc2c(c1)c(C#N)c(-c1ncc(S(=O)(=O)N[C@@H](C)C3CC3)cn1)n2CC1CC1 [compound 561, 2-[3-cyano-1-(cyclopropylmethyl)-5-methyl-1H-indol-2-yl]-N-[(1S)-1-cyclopropylethyl]pyrimidine-5-sulfonamide] | 174 to 178 °C | 500 to 2000 nM |
| COc1ccc2c(c1)c(C#N)c(-c1ncc(S(=O)(=O)NC(CF)CF)cn1)n2C1CCC1 [compound 551, 2-(3-cyano-1-cyclobutyl-5-methoxy-1H-indol-2-yl)-N-(1,3-difluoropropan-2-yl)pyrimidine-5-sulfonamide] | 217 to 219 °C | < 500 nM |
| C[C@H](NS(=O)(=O)c1ccc(-c2c(C#N)c3cc(CC(F)F)ccc3n2C2CCC2)nc1)C(F)(F)F [compound 702, 6-[3-cyano-1-cyclobutyl-5-(2,2-difluoroethyl)-1H-indol-2-yl]-N-[(2S)-1,1,1-trifluoropropan-2-yl]pyridine-3-sulfonamide] | 143 to 147 °C | < 500 nM |
| Cc1cc2c(cc1F)c(C(N)=O)c(-c1ccc(S(=O)(=O)N[C@H](C)C(F)(F)F)cn1)n2C1CCCC1 [compound 699, 1-cyclopentyl-5-fluoro-6-methyl-2-(5-{[(2R)-1,1,1-trifluoropropan-2-yl]sulfamoyl}pyridin-2-yl)-1H-indole-3-carboxamide] | 243 to 245 °C | < 500 nM |
| Cc1ccc2c(c1)c(C#N)c(-c1ncc(S(=O)(=O)NC(C)C)cn1)n2C1CCC1 [compound 121, 2-(3-cyano-1-cyclobutyl-5-methyl-1H-indol-2-yl)-N-(propan-2-yl)pyrimidine-5-sulfonamide] | 134 to 138 °C | < 500 nM |
| C[C@H](NS(=O)(=O)c1ccc(-c2c(C#N)c3cc(Cl)ccc3n2C2CCC2)nc1)C(F)(F)F [compound 376, 6-(5-chloro-3-cyano-1-cyclobutyl-1H-indol-2-yl)-N-[(2S)-1,1,1-trifluoropropan-2-yl]pyridine-3-sulfonamide] | 193 to 198 °C | < 500 nM |
| Cc1cc2c(cc1F)c(C(N)=O)c(-c1ccc(S(=O)(=O)NC(C)(C)C(F)(F)F)cn1)n2C1CCCC1 [compound 701, 1-cyclopentyl-5-fluoro-6-methyl-2-{5-[(1,1,1-trifluoro-2-methylpropan-2-yl)sulfamoyl]pyridin-2-yl}-1H-indole-3-carboxamide] | 211 to 214 °C | < 500 nM |
| CCc1cc2c(cc1F)c(C(N)=O)c(-c1ccc(S(=O)(=O)N[C@@H](C)C(F)(F)F)cn1)n2-c1ccncc1 [compound 1045, 6-ethyl-5-fluoro-1-(pyridin-4-yl)-2-(5-{[(2S)-1,1,1-trifluoropropan-2-yl]sulfamoyl}pyridin-2-yl)-1H-indole-3-carboxamide] | 219 to 224 °C | < 500 nM |
| N#Cc1c(-c2ccc(S(=O)(=O)NC(CF)CF)cn2)n(C2CCCCC2)c2cc(OC(F)(F)F)ccc12 [compound 105, 6-[3-cyano-1-cyclohexyl-6-(trifluoromethoxy)-1H-indol-2-yl]-N-(1,3-difluoropropan-2-yl)pyridine-3-sulfonamide] | 146 to 148 °C | < 500 nM |
